Our source for the TGI and GI50 values is PubChem BioAssay (NCI).

Some test systems named below: OVCAR-5 ovarian; U251 CNS; HCT-15 colon; CAKI-1 renal; RPMI-8226 leukemia; UACC-257 melanoma; SN12C renal; KM12 colon; OVCAR-4 ovarian; SW-620 colon.
What all share (assay): NCI anticancer screen, dose series, 48 h

Values joined by “and” are separate entries in the source; they are usually repeats but may differ in a detail not shown here. Equal values may be shown once.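 Grown in 96-well plates, cells were treated for 48 hours with each compound at five concentrations. Insufficient inhibition: endpoint recorded as highest concentration tested. GI50 marks 50% less growth. TGI: total growth inhibition.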

On to `COc1ccccc1CC(C)N` (centres undefined), for which the TGI in the assay on OVCAR-5 ovarian, in the assay on U251 CNS, with HCT-15 colon, in the assay with CAKI-1 renal, in the assay on RPMI-8226 leukemia and in the assay with UACC-257 melanoma was > 100 µM each time. Further, the TGI in the assay on SN12C renal, with KM12 colon, in the assay on OVCAR-4 ovarian and with SW-620 colon was > 100 µM throughout.

For `NC(CCOCCP(=O)(O)CCC1C=CC=CC1)C(=O)O` (centres undefined), the TGI with OVCAR-5 ovarian, in the assay on U251 CNS, in the assay with HCT-15 colon, in the assay on CAKI-1 renal, in the assay with RPMI-8226 leukemia and in the assay on UACC-257 melanoma was > 100 µM each time. Also, the TGI with SN12C renal, in the assay with KM12 colon, with OVCAR-4 ovarian and in the assay on SW-620 colon was > 100 µM in each case.

In the case of `S=c1c2[nH]cnc2ncn1CCSC1=NC=NC2=NC=NC21` (centres undefined), the TGI with OVCAR-5 ovarian, in the assay on U251 CNS, with HCT-15 colon, in the assay with CAKI-1 renal, in the assay on RPMI-8226 leukemia and in the assay on UACC-257 melanoma was > 100 µM in each case. Besides, the TGI in the assay with SN12C renal, in the assay with KM12 colon, in the assay on OVCAR-4 ovarian and with SW-620 colon was > 100 µM in each case.

In the case of `Nc1ccc(O)c2c1C(=O)c1c(N)ccc(O)c1C2=O`, the TGI with OVCAR-5 ovarian, in the assay with U251 CNS, with HCT-15 colon, in the assay with CAKI-1 renal, with RPMI-8226 leukemia and in the assay on UACC-257 melanoma was > 100 µM in each case. Moreover, the TGI in the assay on SN12C renal, with KM12 colon, in the assay on OVCAR-4 ovarian and in the assay with SW-620 colon was > 100 µM throughout.

Take `CN(CC(=O)O)Cc1c(O)c(Cl)cc(Cl)c1Cl`: the TGI was > 100 µM in the assay with OVCAR-5 ovarian; > 100 µM in the assay on U251 CNS; > 100 µM in the assay on HCT-15 colon; > 100 µM in the assay on CAKI-1 renal; > 100 µM with RPMI-8226 leukemia; 97.5 µM in the assay on UACC-257 melanoma. Further, the TGI with SN12C renal, in the assay with KM12 colon, with OVCAR-4 ovarian and in the assay with SW-620 colon was > 100 µM each time.

On to `Cc1cc2c(c(O)c1-c1c(C)cc(O)c3c1C(=O)C=CC3=O)C(=O)C=CC2=O`, for which the TGI in the assay on OVCAR-5 ovarian turned out to be 7.86 µM; in the assay on U251 CNS, 32.1 µM; in the assay on CAKI-1 renal, 1.48 µM; in the assay with RPMI-8226 leukemia, 2.29 µM; with SN12C renal, 7.59 µM; in the assay on KM12 colon it was 32.9 µM. In the assay on OVCAR-4 ovarian, the TGI worked out at 10.3 µM.

`CCN(CC)CC[n+]1ccc2c(C)c3[nH]c4ccc(O)cc4c3c(C)c2c1`: the TGI with OVCAR-5 ovarian was 72.6 µM and 73.8 µM; in the assay with U251 CNS, 9.12 µM and 11.1 µM; in the assay with HCT-15 colon, 143 µM; with CAKI-1 renal, 49.6 µM and 16.3 µM; in the assay on RPMI-8226 leukemia, 43.4 µM and 35.6 µM; in the assay with UACC-257 melanoma, 43.9 µM and 91.6 µM. Also, the TGI with SN12C renal was 6.42 µM and 3.25 µM; in the assay on KM12 colon it was 20.1 µM and 17.6 µM; in the assay with OVCAR-4 ovarian, 23.4 µM and 30.4 µM; in the assay on SW-620 colon, 93.1 µM and 88.3 µM. Moreover, the GI50 with U251 CNS is 0.624 µM; in the assay on CAKI-1 renal, 3.41 µM; with RPMI-8226 leukemia, 3.41 µM; in the assay on UACC-257 melanoma, 24.2 µM; in the assay on SN12C renal it was 0.211 µM; with KM12 colon, 3.72 µM.

Take `O=C(NC(Cc1ccc(Br)cc1)C(=O)O)c1ccc(I)cc1` (centres undefined): the TGI with OVCAR-5 ovarian, with U251 CNS, in the assay with HCT-15 colon, in the assay with CAKI-1 renal, with RPMI-8226 leukemia and in the assay on UACC-257 melanoma was > 100 µM each time. Besides, the TGI in the assay with SN12C renal, with KM12 colon, in the assay with OVCAR-4 ovarian and in the assay on SW-620 colon was > 100 µM throughout.

Turning to `CSc1nc(CO)c(CO)n1C`, the TGI in the assay on OVCAR-5 ovarian, with U251 CNS, in the assay with HCT-15 colon, with CAKI-1 renal, in the assay on RPMI-8226 leukemia and in the assay on UACC-257 melanoma was > 100 µM each time. In addition, the TGI with SN12C renal, in the assay on KM12 colon, with OVCAR-4 ovarian and with SW-620 colon was > 100 µM throughout.

For the compound `CNC1Cc2c[nH]c3cccc(c23)C12C=C(C)C(=O)O2` (centres undefined), the TGI in the assay with OVCAR-5 ovarian, with U251 CNS, with HCT-15 colon, in the assay with CAKI-1 renal, with RPMI-8226 leukemia and in the assay on UACC-257 melanoma was > 100 µM throughout. For the same compound, the TGI with SN12C renal, in the assay with KM12 colon, in the assay with OVCAR-4 ovarian and in the assay on SW-620 colon was > 100 µM each time.

Regarding `CC1C(=O)CC(c2cccs2)N(N=O)C1c1cccs1` (centres undefined), the TGI in the assay with OVCAR-5 ovarian was > 100 µM; in the assay on U251 CNS, > 100 µM; with HCT-15 colon, > 100 µM; in the assay with CAKI-1 renal, > 100 µM; in the assay on RPMI-8226 leukemia, 67.2 µM; with UACC-257 melanoma, > 100 µM. Also, the TGI in the assay with SN12C renal, in the assay on KM12 colon, in the assay on OVCAR-4 ovarian and with SW-620 colon was > 100 µM throughout.

On to `Clc1cc(Cl)c2cc3cccc[n+]3cc2c1Cl`, for which the TGI with OVCAR-5 ovarian was 38.7 µM; with U251 CNS, 34.7 µM; in the assay on HCT-15 colon, 36.1 µM; with CAKI-1 renal, 21 µM; with RPMI-8226 leukemia it was 45.7 µM; with UACC-257 melanoma, 28.9 µM. Also, the TGI turned out to be 39.5 µM in the assay with SN12C renal, 30.2 µM in the assay with OVCAR-4 ovarian and 34.3 µM in the assay with SW-620 colon.

Turning to `CCCCCCCCCCCCCC1=C(O)C(=O)C(CC2=C(O)C(=O)C(CCCCCCCCCCCCC)=C(O)C2=O)=C(O)C1=O`, the TGI with OVCAR-5 ovarian, in the assay on U251 CNS, with CAKI-1 renal, with UACC-257 melanoma, in the assay with SN12C renal and in the assay with KM12 colon was > 100 µM each time. In the assay on SW-620 colon, the TGI was > 100 µM.
